Measured values from patent publication US20040034049A1, “Promoters for the proliferation and differentiation of stem cells and/or neuron precursor cells” (priority 2003, published 2004).

test system: rat mixed glia culture; experiment: Neural neogenesis promoting effect in rat mixed glia culture (differentiation assay, β III tubulin positive cell count); conditions: 120 h, 1 μM compound, 5 days differentiation, β III tubulin positive cells, % activity based on non-treatment control, read-out: Differentiation or neogenesis promoting activity (%)
Excerpt: Neural Neogenesis Promoting Effect in Rat Mixture Glia Culture
A neonatal SD rat was purchased from Charles River Japan, Inc. A nylon cell strainer with 40 micron in diameter was purchased from Becton Dickinson. DMEM/F12 Medium, antibiotics, N2 additives were purchased from LIFE TECHNOLOGY. Anti-β III-tubulin antibody was purchased from Sigma. DAKO EnVision+/HRP kit was purchased from DAKO Japan. Other reagents were commercial products of analytical grade.
A rat mixed glia culture was made from a hippocampus of a neonatal SD rat of 2 days old. The neonate was anesthetized by ice-cooling, sacrificed by decapitation and the brain was taken out immediately. The meninx was removed carefully, and the […] was separated. The hippocampus was pulverized mechanically by passing through a nylon cell strainer with 40 micron in diameter. The cell dispersion was overlaid on serum, and the cells were fractionated by a non-continuous gradient centrifugation. The pellet was washed twice with a growth medium (DMEM/F12 supplemented with 10% FBS and antibiotics) and then dispersed. The mixed glia culture was inoculated onto a collagen-coated 96-well multiplate at the density of 1×10^5 cells per well, and incubated for 5 days.
After incubating for 5 days, the mixed glia culture was subjected to a differentiation assay. The growth medium was replaced with a serum-free medium (DMEM/F12 supplemented with N2 additives and antibiotics) and the test compound was added simultaneously. After allowing to undergo the differentiation for 5 days followed by fixation with 4% p-formaldehyde, a mouse anti-β III tubulin monoclonal antibody and DAKO EnVision+/HRP kit was used to effect an immunostaining.
The β III tubulin positive cells were counted, and the data in the presence (1 μM) of the Compound (I) and the absence (control) were compared.

Structure (SMILES)	activity at 1 µM
COc1cc2c(cc1OC)CN(c1c(C)c(C)c3c(c1C)[C@@H](c1ccc(C)cc1)C(C)(C)O3)C2 [Example 17a, (R)-5,6-dimethoxy-2-[2,2,4,6,7-pentamethyl-3-(4-methylphenyl)-2,3-dihydro-1-benzofuran-5-yl]isoindoline]	344%
Cc1c(C)c2c(c(C)c1NCc1ccc(F)cc1)C(c1ccc(C(C)C)cc1)C(C)(C)O2 (stereo not drawn) [Example 19b, N-(4-fluorobenzyl)-3-(4-isopropylphenyl)-2,2,4,6,7-pentamethyl-2,3-dihydro-1-benzofuran-5-amine]	468%
COc1cc2c(cc1OC)CN(c1c(C)c(C)c3c(c1C)C(c1ccc(C(C)C)cc1)C(C)(C)O3)C2 (stereo not drawn) [Example 11a, 5,6-dimethoxy-2-[3-(4-isopropylphenyl)-2,2,4,6,7-pentamethyl-2,3-dihydro-1-benzofuran-5-yl]isoindoline]	478%
